Consider three compounds from patent EP4793271A1, “NEUROPROTECTIVE AGENT” (National Center of Neurology and Psychiatry, priority 2023, dated 2025).

Structures are written as SMILES. A value given as a limit tells only on which side of the number the result lay.

Series [1] is described as follows: Pharmacokinetic evaluation after single iv and po administration to mice. The series is classed as in vivo, C57BL/6J male mice. Particulars: for AUC(0-inf) / AUC(0-t) / C0 / half-life / clearance / Vd / Cmax / Tmax: male, C57BL/6J, mouse, plasma; for clearance: read-out: CLtot (converted); for Vd: read-out: Vss; for volume of distribution: result in words. How it is done:
The concentrations of compound 35 and its metabolites in plasma were measured, and oral absorbability (bioavailability) was evaluated. Systemic clearance was calculated for the iv administration, and pharmacokinetic features were determined.
The concentrations of compound 76 and its metabolites in plasma were measured, and oral absorbability (bioavailability) was evaluated. Systemic clearance was calculated for the iv administration, and pharmacokinetic features were determined.
The concentration of compound 105 in plasma was measured, and oral absorbability (bioavailability: BA) was evaluated. A half-life, the volume of distribution in a stationary state, and systemic clearance, and the like were calculated for the iv administration, and pharmacokinetic features were determined.

The target in a further series is T1, hSARM1 (Homo sapiens, UniProt Q6SZW1).
T1 sequence (Q6SZW1 28-724): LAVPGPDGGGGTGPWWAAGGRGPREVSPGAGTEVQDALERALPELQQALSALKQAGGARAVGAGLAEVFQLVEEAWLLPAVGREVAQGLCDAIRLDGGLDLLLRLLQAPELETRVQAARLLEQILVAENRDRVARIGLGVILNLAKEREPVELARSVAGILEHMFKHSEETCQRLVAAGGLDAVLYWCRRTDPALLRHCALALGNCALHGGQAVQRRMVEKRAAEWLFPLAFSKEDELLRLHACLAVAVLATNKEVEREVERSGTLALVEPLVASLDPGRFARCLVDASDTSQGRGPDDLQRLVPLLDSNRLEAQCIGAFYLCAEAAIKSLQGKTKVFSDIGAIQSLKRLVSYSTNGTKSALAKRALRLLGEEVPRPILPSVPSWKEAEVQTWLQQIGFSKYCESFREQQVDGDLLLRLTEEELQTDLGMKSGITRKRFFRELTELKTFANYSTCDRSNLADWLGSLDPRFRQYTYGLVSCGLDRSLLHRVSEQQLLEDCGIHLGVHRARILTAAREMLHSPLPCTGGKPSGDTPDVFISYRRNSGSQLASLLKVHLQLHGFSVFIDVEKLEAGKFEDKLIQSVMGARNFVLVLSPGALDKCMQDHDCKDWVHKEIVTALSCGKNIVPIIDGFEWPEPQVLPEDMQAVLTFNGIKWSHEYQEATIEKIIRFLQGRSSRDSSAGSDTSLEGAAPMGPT
Description: Human SARM1 activity measurement in HEK293 cells transiently transfected with ΔN-hSARM1 (PC6 fluorescent probe). The series is classed as cell-based. More on the design: expressed in transfected cells; host or cells: HEK293, pcDNA3 expression vector. The conditions noted are these: inhibition rate; compound 30 µM; PC6 50 µM; HEK293 cells expressing ΔN-hSARM1; approximately 48 hours from transfection; read-out: Evaluation on hSARM1 inhibitory. The method in brief: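 HEK293 cells in nicotinamide-free DMEM with 5 μM nicotinamide, transiently transfected with mitochondrial-targeting-deleted ΔN-hSARM1; PC6 base-exchange fluorescent probe (50 μM) plus compound (30 μM) added ~8 h post-transfection. Fluorescence (ex 405/em 525 nm) read ~48 h from transfection; inhibition % versus transfected DMSO control, untransfected background subtracted.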

Setting [2] is: 1 mg/kg, iv 1 mg/5 ml/kg single dose.
Where [3] appears, read: 10 mg/kg, po 10 mg/10 ml/kg single dose.

Usually AUC(0-inf) stands for the area under the concentration-time curve extrapolated to infinity. Read a high AUC(0-inf) as more exposure. What is called AUC(0-t) is exposure summed from dosing to a finite time, without extrapolation to infinity. Lower therefore signals less exposure. As usually defined, the half-life is the time needed for the level to fall by half in the phase considered. A higher half-life goes with slow loss. The term Cmax denotes the peak of the concentration-time curve. As usually defined, the Tmax is the time at which the peak concentration occurs. In the case of `O=C(NCCCOCCOCCCNC(=O)c1cccnc1)c1cccnc1` [compound 35], in series [1] (setting [2]), the AUC(0-inf) turned out to be 234 ng·h/mL, the AUC(0-t) amounted to 228 ng·h/mL, the C0 was 1600 ng/mL and the half-life is 1.9 h. In series [1] (setting [2]), the clearance was 71.4 mL/min/kg and the Vd is 1.57 L/kg. Besides, in series [1] (setting [3]), the AUC(0-inf) was 297 ng·h/mL, the AUC(0-t) came to 293 ng·h/mL, the Cmax was found to be 501 ng/mL and the Tmax came out at 0.25 h. Moreover, the half-life in series [1] (setting [3]) is 1.89 h. Besides, the volume of distribution entry in series [1] is “large as compared with the amount of intercellular fluid”. The inhibition at 30 µM at hSARM1 is greater than 75%.

`CC(C)(C)C(=O)Nc1ccc(CNC(=O)c2cccnc2)cn1` [compound 76]: in series [1] (setting [2]), the AUC(0-inf) was found to be 1160 ng·h/mL, the AUC(0-t) amounted to 1160 ng·h/mL, the C0 turned out to be 1940 ng/mL and the half-life was 1.14 h. Besides, in series [1] (setting [2]), the clearance was 14.6 mL/min/kg and the Vd turned out to be 0.89 L/kg. Also, in series [1] (setting [3]), the AUC(0-inf) came out at 14200 ng·h/mL, the AUC(0-t) worked out at 14100 ng·h/mL, the Cmax is 9850 ng/mL and the Tmax was determined as 0.25 h. For the same compound, in series [1] (setting [3]), the half-life is 3.21 h. In series [1] (po 10 mg/10 ml/kg vs iv 1 mg/5 ml/kg, oral absorbability (bioavailability)), this compound gave a BA of 124%. Also, the volume of distribution result in series [1] is listed as “large”. In addition, the inhibition at 30 µM on hSARM1 is greater than 50%.

In series [1] (setting [2]), `O=C(NCc1ccc(NC(=O)c2ccccc2)nc1)c1cccnc1` [compound 105] had an AUC(0-inf) of 408 ng·h/mL, an AUC(0-t) of 391 ng·h/mL, a C0 of 1050 ng/mL and a half-life of 2.81 h. In addition, in series [1] (setting [2]), the clearance is 40.9 mL/min/kg and the Vd worked out at 3.14 L/kg. In series [1] (setting [3]), the AUC(0-inf) is 2420 ng·h/mL, the AUC(0-t) was determined as 2410 ng·h/mL, the highest level (Cmax) was 2520 ng/mL and the Tmax was 0.25 h. For the same compound, in series [1] (setting [3]), the half-life is 4.13 h. The volume of distribution entry in series [1] is on record as “large as compared with the amount of intercellular fluid”. In addition, the inhibition at 30 µM at hSARM1 is greater than 50%.
